Experimental data: ChEMBL document CHEMBL1157539, “Thousands of chemical starting points for antimalarial lead identification” (Nature, 2010)
Several values for one entry are separate records, joined by “and”; a condition that tells them apart may be missing. Equal values may be shown once.

Test system: Plasmodium falciparum
Experiment: GSK_TCMDC: Inhibition of Plasmodium falciparum 3D7 in whole erythrocytes, using parasite LDH activity as an index of growth.
Assay type: functional, organism-based

Row | Compound | XC50 (Plasmodium falciparum, 3D7) | XC50
1 | OC(CNCc1ccccc1)c1cc(OCc2ccccc2)cc(OCc2ccccc2)c1 (centres undefined) | 1000 nM | –
2 | c1ccc2c(NCCc3c[nH]cn3)c3ccccc3nc2c1 | 1040 nM | –
3 | CC(CN1CCN(CC(c2ccc(F)cc2)N2CCN(C)CC2)CC1)C(=O)c1ccc(O)cc1 (centres undefined) | 672 nM | –
4 | COc1ccc2nccc([C@@H](O)CN3CCC(NCc4ccc5c(c4)NC(=O)C(C)(C)O5)CC3)c2c1 | 402 nM | –
5 | CCCNCc1ccc(-c2ccc(CN(CCOC)C(=O)CCCOCc3ccccc3)cc2)nc1 | 1160 nM | –
6 | CN(C(=O)c1nn(-c2ccccn2)c2nccc(-c3cccs3)c12)C1CCCCC1 | 1240 nM | –
7 | N[C@@H](Cc1cc(I)c(Oc2ccc(O)c(Cl)c2)c(I)c1)C(=O)O | 993 nM | –
8 | CO/C(=C\C=C\c1cc2cc(Cl)c(Cl)cc2[nH]1)C(=O)NC1CCN(CCOc2ccccc2)CC1 | 611 nM | –
9 | N/C(=N\c1cccc(Cc2ccccc2)n1)NCc1ccccc1 | 863 nM | –
10 | COc1ccc2nccc([C@@H](O)CN3CCC(NCCOc4cccc(C(F)(F)F)c4)CC3)c2c1 | 159 nM | –
11 | O=C(Nc1ccccc1-c1ccccc1)C1CCCN1C(=O)Nc1ccc(Cl)cc1 (centres undefined) | 793 nM | –
12 | Cc1cccc2nc(-c3ccc(-c4cccc(CNCCN(C)C)c4)cc3)[nH]c12 | 682 nM | –
13 | O=C(O)C1CC(=O)N(c2ccc(Cl)cc2)C1 (centres undefined) | 219 nM | –
14 | COc1ccc(NC(=O)NC2CCN(CCCOc3ccnc4cc(Cl)ccc34)C2)cc1OC (centres undefined) | 792 nM | –
15 | COc1cccc(C(=O)Nc2ccc(Oc3ccc(Cl)cc3)cc2)c1 | 956 nM | –
16 | CN1CCN(c2ccnc3ccc(NC(=O)Nc4cccc5c(-c6ccncc6)cccc45)cc23)CC1 | 877 nM | –
17 | O=C(/C=C/c1ccc(Cl)c(Cl)c1)NCCCCCCN1CCCN(C(=O)Nc2ccc(Cl)c(Cl)c2)CC1 | 666 nM | –
18 | CN(C)CCNC(=O)c1ccc2c(c1)ncn2-c1cc(OCc2ccccc2C(F)(F)F)c(C(N)=O)s1.CN(C)CCNC(=O)c1ccc2ncn(-c3cc(OCc4ccccc4C(F)(F)F)c(C(N)=O)s3)c2c1 | 809 nM | –
19 | Cc1c(C(=O)C2CC2CN2CCC(N3CCCC3)CC2)sc2ccccc12 (centres undefined) | 1400 nM | –
20 | OC(CNc1ccnc(Nc2ccc(Cl)cc2)n1)c1ccc(C(F)(F)F)cc1 (centres undefined) | 771 nM | –
21 | CCN(CC)CCCN(C(=O)c1cc2c(C)nn(-c3ccccc3)c2s1)c1nc(-c2ccc(OC)cc2)cs1 | 1150 nM | –
22 | O=C(/C=C/C=C/c1ccccc1)NCCCCCN1CCC(c2c[nH]c3ccccc23)CC1 | 1170 nM | –
23 | CN1CCOc2ccc(Nc3nnc(-c4cccc(-c5cccnc5)c4)o3)cc2C1 | 104 nM | –
24 | COc1ccc2nccc([C@@H](O)CN3CCC(NCc4ccc(OC)c(NC=O)c4)CC3)c2c1 | 753 nM | –
25 | Cc1cc(N[C@@H](CC(C)C)C(=O)NCc2cccc(F)c2)nc(NCCc2ccc(F)cc2)n1 | 1470 nM | –

Row | Compound | XC50 (Plasmodium falciparum, 3D7) | XC50
26 | COc1ccc(CCNCC(O)c2cccc(Br)c2)c(Cl)c1OC (centres undefined) | 1040 nM | –
27 | COc1ccc(CCNC(=O)c2ccccc2O)cc1-c1ccc(C(C)(C)C)cc1 | 563 nM | –
28 | C=CCC(C)n1ncc2c3c(N)nc(N)nc3ccc21 (centres undefined) | 50 nM | –
29 | Cc1cc(NCCc2ccc(O)cc2)nc(NCC(c2ccccc2)c2ccccc2)n1 | 320 nM | –
30 | COc1ccc2c(CNCCCCCCNCc3c(OC)ccc4cc(OC)ccc34)c(OC)ccc2c1 | 560 nM | –
31 | CCOc1ccc(-c2nonc2NC(=O)c2ccc(OC(C)C)cc2)cc1OCC | 601 nM | –
32 | CCCCCCn1c(Sc2ccc(C#N)c([N+](=O)[O-])c2)nnc1-c1cccc(Cl)c1 | 609 nM | –
33 | CC1(C)N=C(N)N=C(N)N1OCCCc1ccccc1 | 3.2 nM | –
34 | Oc1c(C=Nn2cnnc2)sc2ccccc12 | 911 nM | –
35 | COc1ccc(NC(=O)Nc2cccc(-c3cccc(-c4nc5ccccc5[nH]4)c3)c2)cc1 | 309 nM | –
36 | c1ccc(C2CCC(N3CCC(N4CCCC4)CC3)CC2)cc1 (centres undefined) | 671 nM | –
37 | COc1ccc(CC(=O)NC(CCCN2CCC3(CC2)OCc2ccccc23)c2ccc(Cl)c(Cl)c2)cc1 (centres undefined) | 1130 nM | –
38 | COc1ccc2ncc(F)c(C(O)CN3CCC(NCc4ccc5c(n4)NC(=O)CO5)CC3)c2c1 (centres undefined) | – | 1110 nM and 367 nM
39 | CN(C)CCN(C)Cc1ccc(-c2ccc(NC(=O)c3cccc(Cl)c3)cc2)cc1 | 1140 nM | –
40 | Nc1nnc(-c2ccc(Cl)c(Br)c2)c(N)n1 | 1040 nM | –
41 | Cc1n[nH]c2cc(Nc3ccnc(Nc4ccc(CN5CCOCC5)cc4)n3)ccc12 | 950 nM | –
42 | Cc1[nH]c(C)c(-c2ccc(OCc3cc(F)cc(F)c3)nc2)c(=O)c1Cl | 86.8 nM | –
43 | Cc1cc(N)nc2ccc(CNCCc3ccccc3Br)cc12 | 120 nM | –
44 | C[C@H](NC(=O)c1c(CN2CCC(N3CCCCC3)CC2)c(-c2ccccc2)nc2cc(O)ccc12)C1CCCCC1 | 759 nM | –
45 | NC1CCCN(Cc2ccc(-c3ccc(-c4nc5cc(F)ccc5[nH]4)s3)cc2)C1 (centres undefined) | 177 nM | –
46 | COc1cccc(CCc2cccc(CNC(C)=O)c2)c1 | 1040 nM | –
47 | Oc1ccc(Br)cc1-c1nc2ccc(Cl)cc2nc1-c1cc(Br)ccc1O | 789 nM | –
48 | Cc1c(Cc2ccccc2)c(=O)oc2c(C)c3c(cc12)CN(CC(C)c1ccccc1)CO3 (centres undefined) | 454 nM | –
49 | O=C(/C=C/c1ccc(Cl)c(Cl)c1)NCCCCCN1C2CCC1CC(c1c[nH]c3ccccc13)C2 (centres undefined) | 840 nM | –
